Row | Compound | melting point [°C]
1 | O=C(C[C@H](Cc1ccccc1)NS(=O)(=O)C(F)(F)F)N1CC2CCC1CC2 | 155 to 158
2 | O=C(Nc1ccncc1)[C@H](CC(=O)N1CC2CCC1CC2)Cc1ccccc1 | 171 to 172
3 | O=C(O)C(=O)N[C@H](CC(=O)N1CC2CCC1CC2)Cc1ccccc1 | 156 to 159
4 | O=C(O)CC(=O)N[C@H](CC(=O)N1CC2CCC1CC2)Cc1ccccc1 | 149 to 151
5 | CS(=O)(=O)N[C@H](CC(=O)N1CC2CCC1CC2)Cc1ccccc1 | 127 to 129
6 | O=C(C[C@@H](Cc1ccccc1)NS(=O)(=O)C(F)(F)F)N1CC2CCC1CC2 | 128 to 130
7 | CS(=O)(=O)N[C@@H](CC(=O)N1CC2CCC1CC2)Cc1ccccc1 | 129 to 130
8 | O=C(Oc1ccc(NS(=O)(=O)C(F)(F)F)cc1)[C@H](CC(=O)N1CC2CCC1CC2)Cc1ccccc1 | 60 to 62
9 | O=C(Nc1ccc(NS(=O)(=O)C(F)(F)F)cc1)[C@H](CC(=O)N1CC2CCC1CC2)Cc1ccccc1 | 136 to 138
10 | O=C(Nc1nccs1)[C@H](CC(=O)N1CC2CCC1CC2)Cc1ccccc1 | 69 to 72
11 | CCOc1cc(CC(=O)N[C@H](CC(=O)N2CC3CCC2CC3)Cc2ccccc2)ccc1C(=O)O | 100 to 103
12 | O=C(Cc1ccc(NS(=O)(=O)C(F)(F)F)cc1)N[C@H](CC(=O)N1CC2CCC1CC2)Cc1ccccc1 | 78 to 80
13 | O=C(Cc1ccc(NC(=O)C(=O)O)cc1)N[C@@H](CC(=O)N1CC2CCC1CC2)Cc1ccccc1 | 79 to 80
14 | O=C(O)C(=O)Nc1ccc(C(=O)N[C@@H](CC(=O)N2CC3CCC2CC3)Cc2ccccc2)cc1 | 200 to 201
15 | O=C(O)/C=C/[C@H](CC(=O)N1CC2CCC1CC2)Cc1ccccc1 | 52 to 53
16 | O=C(O)CC[C@H](CC(=O)N1CC2CCC1CC2)Cc1ccccc1 | 79 to 81
17 | O=C(Nc1cc(F)c(O)c(F)c1)[C@H](CC(=O)N1CC2CCC1CC2)Cc1ccccc1 | 118 to 120

Row | Compound | melting point [°C]
18 | O=C(O)C(C[C@H](CC(=O)N1CC2CCC1CC2)CC1CCCCC1)C(=O)O | 84 to 85
19 | O=C(O)[C@H](CC(=O)N1CC2CCC1CC2)Oc1ccccc1 | 140 to 142
20 | O=C(O)C(C[C@H](CC(=O)N1CC2CCC1CC2)Cc1ccccc1)C(=O)O | 78 to 80
21 | O=C(O)C(O)[C@H](CC(=O)N1CC2CCC1CC2)Cc1ccccc1 (stereo partly drawn) | 60 to 61
22 | O=C(Nc1nccs1)[C@H](CC(=O)N1CC2CCC1CC2)Oc1ccccc1 | 60 to 65
23 | O=C(C[C@H](Cc1ccccc1)Nc1c(O)c(=O)c1=O)N1CC2CCC1CC2 | 156 to 158
24 | O=C(C[C@@H](C=NOS(=O)(=O)O)Cc1ccccc1)N1CC2CCC1CC2 | 148 to 151
25 | O=C(O)[C@@H](CCOc1ccccc1)CC(=O)N1CC2CCC1CC2 | 117 to 119
26 | O=C(O)[C@H](CCOc1ccccc1)CC(=O)N1CC2CCC1CC2 | 115 to 117
27 | O=C(O)[C@H](CC(=O)N1CC2CCC1CC2)Cc1ccccc1 [Compound 1, (2S)-2-benzyl-4-(isoquinuclidin-2-yl)-4-oxo-butanoic acid] | 93 to 95
28 | O=C([O-])[C@H](CC(=O)N1CC2CCC1CC2)Cc1ccccc1.[Na+] [Compound 11] | > 250
29 | O=C(OC1CCCCC1)[C@H](CC(=O)N1CC2CCC1CC2)Cc1ccccc1 [Compound 14] | 92 to 95
30 | O=C(Oc1ccccc1)[C@H](CC(=O)N1CC2CCC1CC2)Cc1ccccc1 [Compound 15, (2S)-2-benzyl-4-(isoquinuclidin-2-yl)-4-oxo-butanoic acid phenylester] | 112 to 113
31 | O=C(Oc1ccc(O)cc1)[C@H](CC(=O)N1CC2CCC1CC2)Cc1ccccc1 [Compound 18, p-hydroxy phenyl (2S)-2-benzyl-4-(isoquinuclidine-2-yl)-4-oxo-butyrate] | 61 to 64
32 | O=C(O)[C@H](CCN1CC2CCC1CC2)Cc1ccccc1 [Compound 47] | 171 to 174
33 | CN(c1c(O)c(=O)c1=O)[C@H](CC(=O)N1CC2CCC1CC2)Cc1ccccc1 [Compound 52, N-(3-hydroxy-3-cyclobutene-1,2-dione-4-yl)-N-methyl-(1S)-[2-(isoquinuclidin-2-yl)-2-oxo-ethyl]-phenyl ethylamine] | 153 to 155
